Data as given in ChEMBL document CHEMBL1926681, “Novel inhibitors of epidermal growth factor receptor: (4-(Arylamino)-7H-pyrrolo[2,3-d]pyrimidin-6-yl)(1H-indol-2-yl)methanones and (1H-indol-2-yl)(4-(phenylamino)thieno[2,3-d]pyrimidin-6-yl)methanones” (Bioorg Med Chem, 2012).
The source made the active and inactive calls. The rule behind the calls is not given here.

Columns and labels:
[1] = Cytotoxicity against human LXFL 1121L cells after 4 days by propidium iodide staining-based fluorometric analysis; format: functional, cell-based; conditions: 96 h
PANC-1 = assay: Cytotoxicity against human PANC1 cells after 4 days by propidium iodide staining-based fluorometric analysis; format: functional, cell-based; conditions: PANC-1, 96 h
[2] = Cytotoxicity against human LXFA 526L cells after 4 days by propidium iodide staining-based fluorometric analysis; format: functional, cell-based; conditions: 96 h
[3] = target: T1, Epidermal growth factor receptor (Homo sapiens, UniProt P00533); assay: Inhibition of EGFR using poly(Glu,Tyr)4:1 as substrate and [gamma33P]ATP after 60 mins by scintillation counting
LNCaP = assay: Cytotoxicity against human LNCAP cells after 4 days by propidium iodide staining-based fluorometric analysis; format: functional, cell-based; conditions: 96 h
[4] = Cytotoxicity against human PC3M cells after 4 days by propidium iodide staining-based fluorometric analysis; format: functional, cell-based; conditions: PC-3M, 96 h
SAOS-2 = assay: Cytotoxicity against human Saos2 cells after 4 days by propidium iodide staining-based fluorometric analysis; format: functional, cell-based; conditions: SAOS-2, 96 h, read-out: IC50
[5] = Cytotoxicity against human RXF 1781L cells after 4 days by propidium iodide staining-based fluorometric analysis; format: functional, cell-based; conditions: 96 h
[6] = target: T1, Epidermal growth factor receptor; assay: Inhibition of EGFR using poly(Glu,Tyr)4:1 as substrate and [gamma33P]ATP at 1 uM after 60 mins by scintillation counting
MCF7 = assay: Cytotoxicity against human MCF7 cells after 4 days by propidium iodide staining-based fluorometric analysis; format: functional, cell-based; conditions: MCF7, 96 h
NCI-H460 = assay: Cytotoxicity against human H460 cells after 4 days by propidium iodide staining-based fluorometric analysis; format: functional, cell-based; conditions: NCI-H460, 96 h
[7] = Cytotoxicity against human PXF 1752L cells after 4 days by propidium iodide staining-based fluorometric analysis; format: functional, cell-based; conditions: 96 h
OVCAR-3 = assay: Cytotoxicity against human OVCAR3 cells after 4 days by propidium iodide staining-based fluorometric analysis; format: functional, cell-based; conditions: OVCAR-3, 96 h
[8] = Cytotoxicity against human BXF 1352L cells after 4 days by propidium iodide staining-based fluorometric analysis; format: functional, cell-based; conditions: 96 h
DU-145 = assay: Cytotoxicity against human DU145 cells after 4 days by propidium iodide staining-based fluorometric analysis; format: functional, cell-based; conditions: DU-145, 96 h
[9] = Cytotoxicity against human OVXF 899L cells after 4 days by propidium iodide staining-based fluorometric analysis; format: functional, cell-based; conditions: 96 h
MKN-45 = assay: Cytotoxicity against human MKN45 cells after 4 days by propidium iodide staining-based fluorometric analysis; format: functional, cell-based; conditions: MKN-45, 96 h
[10] = Cytotoxicity against human MDA231 cells after 4 days by propidium iodide staining-based fluorometric analysis; format: functional, cell-based; conditions: MDA-MB-231, 96 h
[11] = Cytotoxicity against human BXF 1218L cells after 4 days by propidium iodide staining-based fluorometric analysis; format: functional, cell-based; conditions: 96 h
TE-671 = assay: Cytotoxicity against human TE671 cells after 4 days by propidium iodide staining-based fluorometric analysis; format: functional, cell-based; conditions: TE-671, 96 h
[12] = Cytotoxicity against human GXF251L cells after 4 days by propidium iodide staining-based fluorometric analysis; format: functional, cell-based; conditions: GXF 251L, 96 h
[13] = Cytotoxicity against human MEXF 462NL cells after 4 days by propidium iodide staining-based fluorometric analysis; format: functional, cell-based; conditions: 96 h
[14] = Cytotoxicity against human LIXF 575L cells after 4 days by propidium iodide staining-based fluorometric analysis; format: functional, cell-based; conditions: 96 h
[15] = Cytotoxicity against human MAXF 401NL cells after 4 days by propidium iodide staining-based fluorometric analysis; format: functional, cell-based; conditions: 96 h
[16] = Cytotoxicity against human BXF T24 cells after 4 days by propidium iodide staining-based fluorometric analysis; format: functional, cell-based; conditions: T-24, 96 h
RKO = assay: Cytotoxicity against human RKO cells after 4 days by propidium iodide staining-based fluorometric analysis; format: functional, cell-based; conditions: 96 h
[17] = Cytotoxicity against human MEXF 1341L cells after 4 days by propidium iodide staining-based fluorometric analysis; format: functional, cell-based; conditions: 96 h
[18] = Cytotoxicity against human PXF 1118L cells after 4 days by propidium iodide staining-based fluorometric analysis; format: functional, cell-based; conditions: 96 h
CAL-27 = assay: Cytotoxicity against human CAL27 cells after 4 days by propidium iodide staining-based fluorometric analysis; format: functional, cell-based; conditions: CAL-27, 96 h
[19] = target: Vascular endothelial growth factor receptor 2 (Homo sapiens) (UniProt P35968); assay: Inhibition of VEGFR2 using poly(Glu,Tyr)4:1 as substrate and [gamma33P]ATP at 1 uM after 60 mins by scintillation counting
[20] = Cytotoxicity against human LXFA 289L cells after 4 days by propidium iodide staining-based fluorometric analysis; format: functional, cell-based; conditions: 96 h
[21] = Cytotoxicity against human RXF 393NL cells after 4 days by propidium iodide staining-based fluorometric analysis; format: functional, cell-based; conditions: 96 h
[22] = Cytotoxicity against human RXF 486L cells after 4 days by propidium iodide staining-based fluorometric analysis; format: functional, cell-based; conditions: 96 h
HCT-116 = assay: Cytotoxicity against human HCT116 cells after 4 days by propidium iodide staining-based fluorometric analysis; format: functional, cell-based; conditions: HCT-116, 96 h
[23] = Cytotoxicity against human LXFA 629L cells after 4 days by propidium iodide staining-based fluorometric analysis; format: functional, cell-based; conditions: 96 h
[24] = Cytotoxicity against human MEXF 276L cells after 4 days by propidium iodide staining-based fluorometric analysis; format: functional, cell-based; conditions: MEXF276L, 96 h
[25] = target: Tyrosine-protein kinase ABL1 (Homo sapiens) (UniProt P00519); assay: Inhibition of ABL1 using poly(Ala, Glu, Lys, Tyr) as substrate and [gamma33P]ATP at 1 uM after 60 mins by scintillation counting
[26] = Cytotoxicity against human LXFL 529L cells after 4 days by propidium iodide staining-based fluorometric analysis; format: functional, cell-based; conditions: 96 h
[27] = Cytotoxicity against human UXF 1138L cells after 4 days by propidium iodide staining-based fluorometric analysis; format: functional, cell-based; conditions: 96 h
[28] = Cytotoxicity against human PAXF 1657L cells after 4 days by propidium iodide staining-based fluorometric analysis; format: functional, cell-based; conditions: 96 h
[29] = target: Receptor tyrosine-protein kinase erbB-2 (Homo sapiens) (UniProt P04626); assay: Inhibition of Erbb2 using poly(Glu,Tyr)4:1 as substrate and [gamma33P]ATP at 1 uM after 60 mins by scintillation counting
[30] = Cytotoxicity against human CXF 269L cells after 4 days by propidium iodide staining-based fluorometric analysis; format: functional, cell-based; conditions: 96 h
[31] = Cytotoxicity against human PAXF 546L cells after 4 days by propidium iodide staining-based fluorometric analysis; format: functional, cell-based; conditions: 96 h
[32] = Cytotoxicity against human DIFI cells after 4 days by propidium iodide staining-based fluorometric analysis; format: functional, cell-based; conditions: 96 h
[33] = target: Hepatocyte growth factor receptor (Homo sapiens) (UniProt P08581); assay: Inhibition of MET using poly(Ala, Glu, Lys, Tyr) as substrate and [gamma33P]ATP at 1 uM after 60 mins by scintillation counting
[34] = Cytotoxicity against human PXF 698L cells after 4 days by propidium iodide staining-based fluorometric analysis; format: functional, cell-based; conditions: 96 h
HT-29 = assay: Cytotoxicity against human HT-29 cells after 4 days by propidium iodide staining-based fluorometric analysis; format: functional, cell-based; conditions: HT-29, 96 h
CWR22R = assay: Cytotoxicity against human 22Rv1 cells after 4 days by propidium iodide staining-based fluorometric analysis; format: functional, cell-based; conditions: 22Rv1, 96 h
[35] = target: T1, Epidermal growth factor receptor; assay: Inhibition of EGFR autophosphorylation in EGF-stimulated human A431 cells after 1 hr by immunoblotting; format: cell-based, A-431

Tyrosine-protein kinase ABL1 (Homo sapiens), sequence (P00519 whole entry): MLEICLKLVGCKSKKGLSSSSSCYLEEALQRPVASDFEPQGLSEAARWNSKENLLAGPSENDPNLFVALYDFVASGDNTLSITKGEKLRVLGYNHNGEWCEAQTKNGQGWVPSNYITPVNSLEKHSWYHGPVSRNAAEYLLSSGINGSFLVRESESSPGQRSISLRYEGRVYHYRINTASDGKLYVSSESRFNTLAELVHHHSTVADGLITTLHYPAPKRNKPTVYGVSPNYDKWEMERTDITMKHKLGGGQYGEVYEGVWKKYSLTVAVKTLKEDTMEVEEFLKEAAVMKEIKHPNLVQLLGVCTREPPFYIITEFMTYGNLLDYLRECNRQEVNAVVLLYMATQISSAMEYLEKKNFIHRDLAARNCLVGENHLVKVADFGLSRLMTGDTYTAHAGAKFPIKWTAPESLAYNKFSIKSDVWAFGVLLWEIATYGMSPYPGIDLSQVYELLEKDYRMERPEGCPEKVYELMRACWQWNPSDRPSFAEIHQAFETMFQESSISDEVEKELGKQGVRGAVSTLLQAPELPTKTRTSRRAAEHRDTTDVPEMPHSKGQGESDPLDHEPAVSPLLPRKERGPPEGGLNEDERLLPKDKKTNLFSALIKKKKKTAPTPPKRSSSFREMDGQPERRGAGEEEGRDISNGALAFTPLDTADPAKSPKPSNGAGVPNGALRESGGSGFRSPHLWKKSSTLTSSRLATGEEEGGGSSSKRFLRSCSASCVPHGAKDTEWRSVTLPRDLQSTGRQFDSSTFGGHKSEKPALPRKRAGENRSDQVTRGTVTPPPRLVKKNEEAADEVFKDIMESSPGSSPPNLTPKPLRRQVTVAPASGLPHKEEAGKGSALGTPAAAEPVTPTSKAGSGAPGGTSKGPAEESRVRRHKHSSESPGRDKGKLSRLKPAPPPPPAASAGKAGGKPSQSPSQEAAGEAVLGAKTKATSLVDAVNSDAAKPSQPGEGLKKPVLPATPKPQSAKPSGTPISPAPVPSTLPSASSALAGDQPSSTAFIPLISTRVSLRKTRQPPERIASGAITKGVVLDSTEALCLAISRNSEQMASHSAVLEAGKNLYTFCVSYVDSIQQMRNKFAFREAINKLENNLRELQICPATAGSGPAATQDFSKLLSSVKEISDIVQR
T1 sequence (P00533 whole entry): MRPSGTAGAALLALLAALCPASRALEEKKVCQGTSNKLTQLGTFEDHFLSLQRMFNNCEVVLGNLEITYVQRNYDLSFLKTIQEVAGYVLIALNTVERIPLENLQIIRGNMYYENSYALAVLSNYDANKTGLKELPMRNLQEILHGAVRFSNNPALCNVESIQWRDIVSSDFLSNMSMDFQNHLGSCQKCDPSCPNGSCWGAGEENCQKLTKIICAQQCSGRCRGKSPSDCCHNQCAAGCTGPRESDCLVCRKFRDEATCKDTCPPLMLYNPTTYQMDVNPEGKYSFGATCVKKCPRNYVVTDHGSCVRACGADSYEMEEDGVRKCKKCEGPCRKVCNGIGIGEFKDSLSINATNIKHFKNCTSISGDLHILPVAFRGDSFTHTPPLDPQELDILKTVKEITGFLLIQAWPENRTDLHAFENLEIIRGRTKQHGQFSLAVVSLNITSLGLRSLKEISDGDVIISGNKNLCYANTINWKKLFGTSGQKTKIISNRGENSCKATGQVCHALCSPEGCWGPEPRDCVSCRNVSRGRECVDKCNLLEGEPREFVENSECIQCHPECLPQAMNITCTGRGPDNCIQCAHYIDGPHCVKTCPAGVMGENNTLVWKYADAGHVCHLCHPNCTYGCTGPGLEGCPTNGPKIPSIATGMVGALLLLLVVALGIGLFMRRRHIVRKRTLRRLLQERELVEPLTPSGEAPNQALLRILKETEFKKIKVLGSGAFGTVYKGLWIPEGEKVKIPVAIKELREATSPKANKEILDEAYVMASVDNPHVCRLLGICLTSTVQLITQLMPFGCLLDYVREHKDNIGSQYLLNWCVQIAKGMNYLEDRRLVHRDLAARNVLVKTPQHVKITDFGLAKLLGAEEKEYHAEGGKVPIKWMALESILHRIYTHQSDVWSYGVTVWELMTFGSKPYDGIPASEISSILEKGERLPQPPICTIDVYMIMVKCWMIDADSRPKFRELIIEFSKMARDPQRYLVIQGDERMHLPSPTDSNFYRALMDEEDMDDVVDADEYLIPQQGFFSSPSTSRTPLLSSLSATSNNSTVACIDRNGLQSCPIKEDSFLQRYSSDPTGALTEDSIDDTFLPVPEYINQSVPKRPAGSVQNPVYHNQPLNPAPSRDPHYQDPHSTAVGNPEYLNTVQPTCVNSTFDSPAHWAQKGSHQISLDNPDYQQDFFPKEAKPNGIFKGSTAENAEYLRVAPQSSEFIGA
Hepatocyte growth factor receptor (Homo sapiens), sequence (P08581 whole entry): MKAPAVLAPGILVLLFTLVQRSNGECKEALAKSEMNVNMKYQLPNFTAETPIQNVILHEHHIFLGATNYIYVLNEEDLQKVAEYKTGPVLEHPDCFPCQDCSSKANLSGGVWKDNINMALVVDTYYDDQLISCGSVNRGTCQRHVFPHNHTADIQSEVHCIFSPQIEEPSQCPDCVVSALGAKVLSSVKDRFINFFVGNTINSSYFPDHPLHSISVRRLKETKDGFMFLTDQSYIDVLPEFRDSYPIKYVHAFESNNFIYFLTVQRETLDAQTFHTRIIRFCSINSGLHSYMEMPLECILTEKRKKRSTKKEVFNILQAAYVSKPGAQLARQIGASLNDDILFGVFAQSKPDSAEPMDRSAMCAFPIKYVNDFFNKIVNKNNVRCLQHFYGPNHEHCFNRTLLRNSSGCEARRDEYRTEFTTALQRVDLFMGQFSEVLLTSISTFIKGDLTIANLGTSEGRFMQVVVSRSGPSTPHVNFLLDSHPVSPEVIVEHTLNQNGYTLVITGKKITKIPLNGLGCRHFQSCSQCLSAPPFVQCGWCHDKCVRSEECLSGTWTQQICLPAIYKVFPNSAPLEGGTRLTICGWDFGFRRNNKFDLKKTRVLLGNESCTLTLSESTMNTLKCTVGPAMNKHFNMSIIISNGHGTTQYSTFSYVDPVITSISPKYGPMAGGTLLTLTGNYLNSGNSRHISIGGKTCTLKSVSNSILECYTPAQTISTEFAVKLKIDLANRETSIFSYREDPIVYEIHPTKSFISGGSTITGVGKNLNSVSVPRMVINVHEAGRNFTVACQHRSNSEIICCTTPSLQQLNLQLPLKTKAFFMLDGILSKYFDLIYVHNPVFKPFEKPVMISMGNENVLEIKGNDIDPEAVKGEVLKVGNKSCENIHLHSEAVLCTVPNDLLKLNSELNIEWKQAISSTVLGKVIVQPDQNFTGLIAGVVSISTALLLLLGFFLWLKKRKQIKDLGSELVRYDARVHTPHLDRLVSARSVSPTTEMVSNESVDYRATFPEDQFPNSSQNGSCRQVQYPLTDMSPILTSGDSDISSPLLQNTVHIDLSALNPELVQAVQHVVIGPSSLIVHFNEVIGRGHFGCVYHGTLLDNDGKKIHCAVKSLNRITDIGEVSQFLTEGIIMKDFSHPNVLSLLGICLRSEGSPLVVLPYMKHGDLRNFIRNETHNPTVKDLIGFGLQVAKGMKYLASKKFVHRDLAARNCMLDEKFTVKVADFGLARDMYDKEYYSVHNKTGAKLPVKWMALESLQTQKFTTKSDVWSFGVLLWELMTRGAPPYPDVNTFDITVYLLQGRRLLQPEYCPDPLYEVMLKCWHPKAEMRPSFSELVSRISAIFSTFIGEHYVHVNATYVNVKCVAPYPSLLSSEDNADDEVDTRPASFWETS
Receptor tyrosine-protein kinase erbB-2 (Homo sapiens), sequence (P04626 whole entry): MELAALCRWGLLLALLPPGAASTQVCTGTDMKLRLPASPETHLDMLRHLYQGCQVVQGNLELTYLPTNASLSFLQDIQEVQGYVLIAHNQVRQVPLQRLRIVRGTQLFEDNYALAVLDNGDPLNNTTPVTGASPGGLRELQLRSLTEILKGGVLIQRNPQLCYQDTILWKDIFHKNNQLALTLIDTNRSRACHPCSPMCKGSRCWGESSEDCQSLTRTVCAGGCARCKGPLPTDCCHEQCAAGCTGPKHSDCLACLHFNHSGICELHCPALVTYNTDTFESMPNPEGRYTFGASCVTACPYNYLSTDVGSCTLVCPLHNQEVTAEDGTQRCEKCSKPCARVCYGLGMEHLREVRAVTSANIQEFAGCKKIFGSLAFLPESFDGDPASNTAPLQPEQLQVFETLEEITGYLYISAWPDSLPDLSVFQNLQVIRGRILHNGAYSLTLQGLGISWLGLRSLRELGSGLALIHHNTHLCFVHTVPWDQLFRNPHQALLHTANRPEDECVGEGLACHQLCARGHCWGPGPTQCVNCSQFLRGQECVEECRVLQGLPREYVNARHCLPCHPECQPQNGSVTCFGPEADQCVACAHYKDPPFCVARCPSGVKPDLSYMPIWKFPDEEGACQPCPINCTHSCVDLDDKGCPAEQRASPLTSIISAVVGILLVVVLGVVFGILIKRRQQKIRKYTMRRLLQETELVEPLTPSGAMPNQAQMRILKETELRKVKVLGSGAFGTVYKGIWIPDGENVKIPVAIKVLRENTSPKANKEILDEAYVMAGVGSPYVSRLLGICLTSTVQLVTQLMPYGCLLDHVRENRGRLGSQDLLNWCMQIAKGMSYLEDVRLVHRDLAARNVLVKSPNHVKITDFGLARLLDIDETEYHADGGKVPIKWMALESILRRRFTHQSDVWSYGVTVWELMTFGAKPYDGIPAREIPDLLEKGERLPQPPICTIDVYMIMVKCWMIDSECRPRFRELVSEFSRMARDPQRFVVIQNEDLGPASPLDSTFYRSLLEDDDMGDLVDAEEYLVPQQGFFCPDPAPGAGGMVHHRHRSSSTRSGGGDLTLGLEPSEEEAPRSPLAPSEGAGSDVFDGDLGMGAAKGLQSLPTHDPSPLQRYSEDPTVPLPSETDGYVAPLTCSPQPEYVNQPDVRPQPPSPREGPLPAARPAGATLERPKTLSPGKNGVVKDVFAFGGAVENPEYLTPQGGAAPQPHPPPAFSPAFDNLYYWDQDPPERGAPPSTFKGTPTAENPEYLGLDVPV

## O=C(c1cc2ccccc2[nH]1)c1cc2c(Nc3ccc(F)c(Cl)c3)ncnc2s1
[1]
  IC50: 9.77 µM
PANC-1
  IC50: 7.01 µM
[2]
  IC50: 10.7 µM
[3]
  IC50: 0.00554 µM
LNCaP
  IC50: 6.11 µM
[4]
  IC50: 5.77 µM
SAOS-2
  IC50: 11.4 µM
[5]
  IC50: 9.05 µM
[6]
  inhibition: 100%
MCF7
  IC50: 6.96 µM
NCI-H460
  IC50: 5.82 µM
[7]
  IC50: 13.5 µM
OVCAR-3
  IC50: 8.45 µM
[8]
  IC50: 11.3 µM
DU-145
  IC50: 4.36 µM
[9]
  IC50: 5.56 µM
MKN-45
  IC50: 12.5 µM
[10]
  IC50: 8.04 µM
[11]
  IC50: 9.13 µM
TE-671
  IC50: 14.1 µM
[12]
  IC50: 2.76 µM
[13]
  IC50: 8.11 µM
[14]
  IC50: 8.15 µM
[15]
  IC50: 3.89 µM
[16]
  IC50: 11.4 µM
RKO
  IC50: 7.29 µM
[17]
  IC50: 10.8 µM
[18]
  IC50: 17.9 µM
CAL-27
  IC50: 2.61 µM
[19]
  inhibition: 15%
[20]
  IC50: 6.68 µM
[21]
  IC50: 11.8 µM
[22]
  IC50: 5.5 µM
HCT-116
  IC50: 8.39 µM
[23]
  IC50: 4.88 µM
[24]
  IC50: 10.2 µM
[25]
  inhibition: inactive
[26]
  IC50: 8.61 µM
[27]
  IC50: 4.42 µM
[28]
  IC50: 17.6 µM
[29]
  inhibition: 80%
[30]
  IC50: 10.8 µM
[31]
  IC50: 11.6 µM
[32]
  IC50: 1.39 µM
[33]
  inhibition: inactive
[34]
  IC50: 14.3 µM
HT-29
  IC50: 7.83 µM
CWR22R
  IC50: 5.48 µM

## O=C(c1cc2cc(O)ccc2[nH]1)c1cc2c(Nc3ccc(F)c(Cl)c3)ncnc2s1
[1]
  IC50: 6.02 µM
PANC-1
  IC50: 7.95 µM
[2]
  IC50: 4.36 µM
[3]
  IC50: 0.024 µM
LNCaP
  IC50: 3.01 µM
[4]
  IC50: 5.45 µM
SAOS-2
  IC50: 8.2 µM
[5]
  IC50: 4.87 µM
[6]
  inhibition: 98%
MCF7
  IC50: 4.22 µM
NCI-H460
  IC50: 6 µM
[7]
  IC50: 8.19 µM
OVCAR-3
  IC50: 9.08 µM
[8]
  IC50: 5.97 µM
[35]
  IC50: 0.1 µM
DU-145
  IC50: 2.96 µM
[9]
  IC50: 4.07 µM
MKN-45
  IC50: 7.26 µM
[10]
  IC50: 7.65 µM
[11]
  IC50: 6.34 µM
TE-671
  IC50: 10.1 µM
[12]
  IC50: 4.09 µM
[13]
  IC50: 6.02 µM
[14]
  IC50: 7.04 µM
[15]
  IC50: 4.09 µM
[16]
  IC50: 9.56 µM
RKO
  IC50: 6.01 µM
[17]
  IC50: 5.89 µM
[18]
  IC50: 9.59 µM
CAL-27
  IC50: 1.28 µM
[19]
  inhibition: 10%
[20]
  IC50: 3.25 µM
[21]
  IC50: 5.87 µM
[22]
  IC50: 3.37 µM
HCT-116
  IC50: 7.69 µM
[23]
  IC50: 2.65 µM
[24]
  IC50: 6.28 µM
[25]
  inhibition: inactive
[26]
  IC50: 4.87 µM
[27]
  IC50: 3.45 µM
[28]
  IC50: 9.08 µM
[29]
  inhibition: 87%
[30]
  IC50: 7.58 µM
[31]
  IC50: 8.85 µM
[32]
  IC50: 0.94 µM
[33]
  inhibition: inactive
[34]
  IC50: 9.23 µM
HT-29
  IC50: 13.7 µM
CWR22R
  IC50: 5.61 µM

## CS(=O)(=O)CCNCc1ccc(-c2ccc3ncnc(Nc4ccc(OCc5cccc(F)c5)c(Cl)c4)c3c2)o1 [LAPATINIB]
[1]
  IC50: 7.73 µM
PANC-1
  IC50: 8.12 µM
[2]
  IC50: 4.21 µM
LNCaP
  IC50: 3.68 µM
[4]
  IC50: 4.55 µM
SAOS-2
  IC50: 9.38 µM
[5]
  IC50: 7.67 µM
MCF7
  IC50: 4.83 µM
NCI-H460
  IC50: 13.5 µM
[7]
  IC50: 9.46 µM
OVCAR-3
  IC50: 13.4 µM
[8]
  IC50: 11.5 µM
DU-145
  IC50: 2.99 µM
[9]
  IC50: 3.35 µM
MKN-45
  IC50: 11.5 µM
[10]
  IC50: 7.7 µM
[11]
  IC50: 11.8 µM
TE-671
  IC50: 11 µM
[12]
  IC50: 1.48 µM
[13]
  IC50: 10.1 µM
[14]
  IC50: 7.18 µM
[15]
  IC50: 5.8 µM
[16]
  IC50: 9.65 µM
RKO
  IC50: 5.35 µM
[17]
  IC50: 4.85 µM
[18]
  IC50: 6.86 µM
CAL-27
  IC50: 0.53 µM
[20]
  IC50: 5.79 µM
[21]
  IC50: 7.77 µM
[22]
  IC50: 9.1 µM
HCT-116
  IC50: 13.1 µM
[23]
  IC50: 2.87 µM
[24]
  IC50: 11.4 µM
[25]
  inhibition: inactive
[26]
  IC50: 3.51 µM
[27]
  IC50: 4.4 µM
[28]
  IC50: 11.1 µM
[30]
  IC50: 8.36 µM
[31]
  IC50: 6.12 µM
[32]
  IC50: 0.235 µM
[33]
  inhibition: inactive
[34]
  IC50: 9.49 µM
HT-29
  IC50: 4.62 µM
CWR22R
  IC50: 6.06 µM
